# Source: patent US11661413B2, “Pyrazole compounds or salts thereof, preparation method therefor, herbicidal composition and use thereof” (priority 2015, dated 2023)
# Key:
# [1] = system: Barnyard grass; experiment: weed control effect in post emergence stage, greenhouse pot spray; format: in vivo; details: sprayed at 2-3 leaf stage, after 3 weeks
# Experimental: (§1) The activity level standard of harmful plant damage (i.e. growth inhibition rate) is as follows: The above described growth control rate is fresh weight control rate. Monocotyledonous and dicotyledonous weed seeds and main crop seeds (i.e. wheat, corn, rice, soybean, cotton, oilseed, millet and Sorghum) were put into a plastic pot loaded with soil. Then covered with 0.5-2 cm soil, the seeds were allowed to grow in good greenhouse environment. The test plants were treated at 2-3 leaf stage 2-3 weeks after sowing. […] The solution was sprayed to the plants with a sprayer. Then the plants were cultured for 3 weeks in the greenhouse.
# [2] = system: Flixweed; experiment: as above; format: in vivo; details: 16 g/mu, sprayed at 2-3 leaf stage, after 3 weeks
# Experimental: as §1
# [3] = system: Ning Jing 43; experiment: post emergence stage greenhouse pot spray, rice safety; format: in vivo; details: sprayed at 2-3 leaf stage, after 3 weeks; note: key: 10: completely dead; above 90% growth inhibition rate; above 80% growth inhibition rate; above 70% growth inhibition rate; above 60% growth inhibition rate; above 50% growth inhibition rate; 4: above 30% growth inhibition rate; above 30% growth inhibition rate; above 20% growth inhibition rate; above 1-10% growth inhibition rate; 0: no effect
# Experimental: as §1
# [4] = system: Corn; experiment: post emergence stage greenhouse pot spray, corn safety; format: in vivo; details: 16 g/mu, sprayed at 2-3 leaf stage, after 3 weeks; note: key: 10: completely dead; above 90% growth inhibition rate; above 80% growth inhibition rate; above 70% growth inhibition rate; above 60% growth inhibition rate; above 50% growth inhibition rate; 4: above 30% growth inhibition rate; above 30% growth inhibition rate; above 20% growth inhibition rate; above 1-10% growth inhibition rate; 0: no effect
# Experimental: as §1
# [5] = system: Wheat; experiment: post emergence stage greenhouse pot spray, wheat safety; format: in vivo; details: 16 g/mu, sprayed at 2-3 leaf stage, after 3 weeks; note: key: 10: completely dead; above 90% growth inhibition rate; above 80% growth inhibition rate; above 70% growth inhibition rate; above 60% growth inhibition rate; above 50% growth inhibition rate; 4: above 30% growth inhibition rate; above 30% growth inhibition rate; above 20% growth inhibition rate; above 1-10% growth inhibition rate; 0: no effect
# Experimental: as §1
# [6] = system: Barnyard grass; experiment: weed control effect in transplanted rice field (pot, water application); format: in vivo, Echinochloa; details: 500 g a.i./ha, treated at 0.5 leaf stage, 14 days after treatment, naked eye, weed resistant to pyrazosulfuron-ethyl; note: key: 10: completely dead; above 90% growth inhibition rate; above 80% growth inhibition rate; above 70% growth inhibition rate; above 60% growth inhibition rate; above 50% growth inhibition rate; 4: above 30% growth inhibition rate; above 30% growth inhibition rate; above 20% growth inhibition rate; above 1-10% growth inhibition rate; 0: no effect
# Experimental: (§2) Rice field soil was loaded into a 1/1,000,000 ha pot. The seeds of Echinochloa, Scirpus juncoides, Bidens tripartite and Sagittaria trifolia were sowed and gently covered with soil, then left to stand still in greenhouse in the state of 0.5-1 cm of water storage. The tuber of Sagittaria trifolia was planted in the next day or 2 days later. It was kept at 3-4 cm of water storage thereafter. The weeds were treated by dripping the WP or SC water diluents prepared according to the common preparation method of the compounds of the present invention with pipette homogeneously to achieve specified effective amount when Echinochloa, Scirpus juncoides and Bidens tripartite reached 0.5 leaf stage and Sagittaria trifolia reached the time point of primary leaf stage.
# (§3) The fertility condition of Echinochloa, Scirpus juncoides, Bidens tripartite and Sagittaria trifolia 14 days after the treatment of the compound of the invention and the fertility condition of rice 21 days after the treatment of the compound of the invention respectively with the naked eye.
# (§4) Note: The seeds of barnyard grass, rushlike bulrush, arrowhead and beggartick are collected from Heilongjing Province of China. Tests indicate that the weeds are resistant to common application rate of pyrazosulfuron-ethyl.
# [7] = system: rushlike bulrush; experiment: as above; format: in vivo, Scirpus juncoides; details: 500 g a.i./ha, treated at 0.5 leaf stage, 14 days after treatment, naked eye, weed resistant to pyrazosulfuron-ethyl
# Experimental: as §2, §3, §4
# [8] = system: Beggartick; experiment: as above; format: in vivo, Bidens tripartite; details: 500 g a.i./ha, treated at 0.5 leaf stage, 14 days after treatment, naked eye, weed resistant to pyrazosulfuron-ethyl
# Experimental: as §2, §3, §4
# [9] = system: Arrowhead; experiment: as above; format: in vivo, Sagittaria trifolia; details: 500 g a.i./ha, treated at primary leaf stage, 14 days after treatment, naked eye, weed resistant to pyrazosulfuron-ethyl
# Experimental: as §2, §3, §4
# [10] = system: Rice; experiment: transplanted rice safety evaluation; format: in vivo; details: transplanted 3 leaf stage japonica rice, 500 g a.i./ha, treated 5 days after transplantation, 21 days after treatment, naked eye
# Experimental: In addition, the rice field soil that loaded into the 1/1,000,000 ha pot was leveled to keep water storage at 3-4 cm depth. The 3 leaf stage rice (japonica rice) was transplanted at 3 cm of transplanting depth the next day. The compound of the present invention was treated by the same way after 5 days of transplantation.
# as §3
# [11] = system: barnyard grass, rushlike bulrush, arrowhead and beggartick; experiment: resistance tests of the weeds collected from Heilongjing Province; format: in vivo; details: common application rate; seeds collected from Heilongjing Province of China
SMILES,"weed control effect (activity level), Barnyard grass ([1]; 1 g/mu)","weed control effect (activity level), Barnyard grass ([1]; 2 g/mu)","weed control effect (activity level), Barnyard grass ([1]; 4 g/mu)","weed control effect (activity level), Barnyard grass ([1]; 8 g/mu)","weed control effect (activity level), Barnyard grass ([1]; 16 g/mu)","weed control effect (activity level), Flixweed [2]","damage (activity level), Ning Jing 43 ([3]; 1 g/mu)","damage (activity level), Ning Jing 43 ([3]; 2 g/mu)","damage (activity level), Ning Jing 43 ([3]; 4 g/mu)","damage (activity level), Ning Jing 43 ([3]; 8 g/mu)","damage (activity level), Ning Jing 43 ([3]; 16 g/mu)","damage (activity level), Corn [4]","damage (activity level), Wheat [5]","weed control effect (activity level), Barnyard grass [6]","weed control effect (activity level), rushlike bulrush [7]","weed control effect (activity level), Beggartick [8]","weed control effect (activity level), Arrowhead [9]","damage (activity level), Rice [10]",resistance of the weeds (in words) [11]
CCOC(=O)Oc1c(C(=O)c2ccc(S(C)(=O)=O)c(Cn3cc(C)cn3)c2Cl)c(C)nn1C [Compound 31],3 (above 30% growth inhibition rate),5 (above 50% growth inhibition rate),6 (above 60% growth inhibition rate),8 (above 80% growth inhibition rate),9 (above 90% growth inhibition rate),10,0,0,0,0,0,0,0,10,10,10,9 (above 90% growth inhibition rate),1 (above 1-10% growth inhibition rate),
CCOC(=O)c1cnn(C)c1S(=O)(=O)NC(=O)Nc1nc(OC)cc(OC)n1 [pyrazosulfuron-ethyl],,,,,,,,,,,,,,,,,,,resistant
